Laboratory results from patent publication US7666670B2, “Animal model for the fast identification of pharmaceutical active compounds in vivo” (Janssen Pharmaceutica N.V., priority 2003, dated 2010).
“And” between values parts separate entries of the source, which are not always exact repeats. Identical values can stand only once. *1 amine or outer side, *2 acyl side, *3 side chain or, on linkers, in order; H or OH if unused. Where a SMILES comes first, the peptide text is derived from it. Bridges are numbered along the chain shown (N, C = ends). Roman numbers before positions name the chains, in order. [ ]: non-standard residue; d: D form. Actinocin(9to1) = Cc1c2oc3c(C)ccc(C(=O)[*:1])c3nc-2c(C(=O)[*:2])c(N)c1=O; NMeV = CN[C@H](C(=O)O)C(C)C; Sar = CNCC(=O)O

Assays:
[1] = test system: p21 1300 bp promoter fragment; assay: Induction of p21 1300 bp promoter fragment (ZsGreen fluorescence) in pGL3-basic-ZsGreen-1300 transfected A2780 clones; format: cell-based, human; conditions: for Fold induction (fluorescence after induction divided by fluorescence of DMSO treated cells) / Activation of the 1300 bp fragment of the p21 promoter by DNA damaging agents: 24 h; for Fold induction (fluorescence after induction divided by fluorescence of DMSO treated cells): Fluoroskan; for Fold induction: first screen of 80 clones, the two clones measurable with Fluoroskan; for Activation of the 1300 bp fragment of the p21 promoter by DNA damaging agents: dose response, clones 1 and 5 (FIG. 1)
Method: A2780 cells were plated into a 6-well plate at a density of 2×10^5 cells, incubated for 24 hours, and transfected with 2 ug of pGL3-basic-ZsGreen-1300 and 0.2 ug of pSV2neo vector by using Lipofectamine 2000 (Invitrogen, Brussels, Belgium) as described by manufacturer. The transfected cells were selected for 10 days with G418 (Gibco-BRL, Gaithersburg, Md.) and single cell suspensions were grown. After three weeks, 80 single clones were obtained.
The A2780 transfected pool and the selected 80 clones were expanded and seeded at 10000 cells per well into 96-well plates. 24 hours after seeding, the cells were treated for an additional 24 hours with targeted compounds (affecting sp1 sites in the proximal p21 promoter region) or DNA damaging agents (affecting p53 responsive elements). Subsequently, cells were fixed with 4% PFA for 30′ and counterstained with Hoechst dye. The p21 promoter activation leading to ZsGreen production and thus fluorescence, was monitored by the Ascent Fluoroskan (Thermo Labsystems, Brussels, Belgium) and by fluorescence microscope (Zeiss).

[2] = test system: pGL3-basic-ZsGreen-1300 transfected A2780 xenograft; assay: In vivo xenograft fluorescence, Automated Whole Body Imaging System; design: species or system nude mice
Method: The selected clone was injected subcutaneous (10^7 cells/200 μl) into the flank of nude mice and a calliper measurable tumor was obtained after 12 days. From day 12 on, animals were orally dosed daily during 6 days with solvent, 20 mpk Mitsui (a.k.a. MS-275—Shering—Registry Number 209783-80-2) or 40 mpk compound X (10, 10 and 4 animals respectively). Tumors were evaluated for fluorescence by the in-house developed Automated Whole Body Imaging System (Fluorescent stereomicroscope type Olympus® SZX12 equipped with a GFP filter and coupled to a CCD camera type JAI® CV-M90 controlled by a software package based on the IMAQ Vision Software from National Instruments®).

[3] = test system: tumor; conditions: PK/PD studies; cited from earlier work
[4] = test system: p53RE_tk in HCT116 cells; assay: Induction of p53RE_tk activity (ZsGreen fluorescence) in transfected HCT116 clones; format: cell-based; conditions: 24 h
Method: (§1) A2780 cells and HCT116 cells were plated into a 6-well plate at a density of 4×10^5 cells, incubated for 24 hours, and transfected with 2 ug of p53RE_TK/pGL3-basic-ZsGreen and 0.2 ug of pMC1-neo-Poly A vector by using Lipofectamine and Plus Reagent (Invitrogen, Brussels, Belgium) as described by manufacturer. The transfected cells were selected for 16 days with G418 (Gibco-BRL, Gaithersburg, Md.) and single cell suspensions were grown. After three weeks, 60 single clones were obtained from the transfected HCT116 cells and 40 single clones were obtained from the transfected A2780 cells.
(§2) The A2780 and the HCT116 transfected pool and the selected clones were expanded and seeded at 20000 cells per well into 96-well plates. 24 hours after seeding, the cells were treated for an additional 24 hours with DNA damaging agents (affecting p53 responsive elements). The p53RE_tk activation leading to ZsGreen production and thus fluorescence, was monitored by the Ascent Fluoroskan (Thermo Labsystems, Brussels, Belgium) and by fluorescence microscope (Zeiss).

[5] = test system: p53RE_tk in A2780 cells; assay: Induction of p53RE_tk activity (ZsGreen fluorescence) in transfected A2780 clones; format: cell-based, human; conditions: 24 h, Fluoroskan; for Fold induction (fluorescence after induction divided by fluorescence of DMSO treated cells): A2780 clone 36, 10 ng/ml
Method: as §1, §2

[6] = 20 mpk orally daily for 6 days from day 12, clone 1 and 5 xenograft, nude mice

## CC(/C=C/C(=O)NO)=C\[C@@H](C)C(=O)c1ccc(N(C)C)cc1 [TSA, trichostatin A]
[1]; clone 1, 10^−7M
  Fold induction (fluorescence after induction divided by fluorescence of DMSO treated cells): 5 fold
[1]; 10^−7, 24 h
  Fold induction: 5 fold
[1]
  ZsGreen production in pGL3-basic-ZsGreen-1300 transfected A2780 cells in vitro: induce ZsGreen production

## Nc1ccccc1NC(=O)c1ccc(CNC(=O)OCc2cccnc2)cc1 [Mitsui]
[2]; [6]
  Time after administration of the first dose at which induction of ZsGreen was very clear: 3 days
  Time after starting the treatment at which ZsGreen induction reached a plateau: 5 days
[2]; 20 mpk, clone 2 and 3 xenograft, nude mice
  Basal ZsGreen expression and induction, detection by Automated Whole Body Imaging System: too low
[2]; after 4 days of treatment
  Induction of fluorescence in the xenograft: induces fluorescence
[3]
  Compound reaches the tumor: can reach the tumor
  Concentration reached in the tumor: high enough to stop the tumor from growing
[1]; clone 1, 10^−6M
  Fold induction (fluorescence after induction divided by fluorescence of DMSO treated cells): 2 fold and 1.8 fold
[1]; 10^−6, 24 h
  Fold induction: 1.2-1.5 fold
[1]
  ZsGreen production in pGL3-basic-ZsGreen-1300 transfected A2780 cells in vitro: induce ZsGreen production

## COc1cccc2c1C(=O)c1c(O)c3c(c(O)c1C2=O)C[C@@](O)(C(=O)CO)C[C@@H]3O[C@H]1C[C@H](N)[C@H](O)[C@H](C)O1 [Doxorubicin]
[1]
  Activation of the 1300 bp fragment of the p21 promoter by DNA damaging agents: not able to activate
[1]; listed as doxorubicin
  Activation of the 1300 bp fragment of the p21 promoter by DNA damaging agents: non-responsivness

## O=C(CCCCCCC(=O)Nc1ccccc1)NO [SAHA, suberoylanilide hydroxamic acid]
[1]
  ZsGreen production in pGL3-basic-ZsGreen-1300 transfected A2780 cells in vitro: induce ZsGreen production

## CC[C@@]1(O)C(=O)OCc2c1cc1n(c2=O)Cc2cc3ccccc3nc2-1 [Camptothecin]
[1]
  Activation of the 1300 bp fragment of the p21 promoter by DNA damaging agents: not able to activate
[1]; listed as Campthotecin
  Activation of the 1300 bp fragment of the p21 promoter by DNA damaging agents: non-responsivness

## Bleomycin
[1]
  Activation of the 1300 bp fragment of the p21 promoter by DNA damaging agents: not able to activate
[1]; listed as bleomycin
  Activation of the 1300 bp fragment of the p21 promoter by DNA damaging agents: non-responsivness

## Cc1c2oc3c(C)ccc(C(=O)N[C@@H]4C(=O)N[C@H](C(C)C)C(=O)N5CCC[C@H]5C(=O)N(C)CC(=O)N(C)[C@@H](C(C)C)C(=O)O[C@@H]4C)c3nc-2c(C(=O)N[C@@H]2C(=O)N[C@H](C(C)C)C(=O)N3CCC[C@H]3C(=O)N(C)CC(=O)N(C)[C@@H](C(C)C)C(=O)O[C@@H]2C)c(N)c1=O [actinomycin D] (I: T[dV]P[Sar][NMeV] / II: T[dV]P[Sar][NMeV]; ester I:1-I:C, II:1-II:C; linker I:N-II:N via Actinocin(9to1))
[4]; HCT116 clones 5 and 36, 10 ng/ml
  Induction of fluorescence: strong induction factor
[4]; the 6 responding HCT116 clones, 10 ng/ml, Fluoroskan
  Induction of fluorescence: at least a two fold induction
[5]
  Fold induction (fluorescence after induction divided by fluorescence of DMSO treated cells): 2 fold
[5]; listed as actinomycinD
  Fold induction (fluorescence after induction divided by fluorescence of DMSO treated cells): strong induction factor
[5]; the 2 responding A2780 clones, 10 ng/ml
  Induction of fluorescence: at least a two fold induction
